In brackets after ≈: the same amount, converted by molar mass. Where two headings read alike, the source gives them in different places.
Assay: Solubility in toluene, xylene and chloroform at 25° C.
Format: physicochemical
Conditions: organic solvent or mixture
Procedure: 1. A solubility (mg/mL) of compounds of Examples 1 to 11 and CBP, i.e., 4,4′-bis(9H-carbazol-9-yl)biphenyl, in toluene, xylene and chloroform was measured. The test temperature was 25° C.

[1] = chloroform, in chloroform, read-out: Solubility Chloroform
[2] = chloroform, in chloroform, read-out: solubility in chloroform (text summary of Table 1)
[3] = toluene, in toluene, read-out: Solubility Toluene
[4] = toluene, in toluene, read-out: solubility in toluene (text summary of Table 1)
[5] = xylene, in xylene, read-out: Solubility Xylene
[6] = xylene, in xylene, read-out: solubility in xylene (text summary of Table 1)

| solubility [1] [mg/mL] | solubility [2] [mg/mL] | solubility [3] [mg/mL] | solubility [4] [mg/mL] | solubility [5] [mg/mL] | solubility [6] [mg/mL] | Compound |
| --- | --- | --- | --- | --- | --- | --- |
| 460 (≈ 545 mM) | > 300 | 350 (≈ 415 mM) | > 200 | 392 (≈ 464 mM) | > 240 | CC1(C)c2ccccc2N(c2nc(-c3ccccc3)nc(-c3cccc4c3-c3ccccc3C43c4ccccc4-c4ccccc43)n2)c2ccc3c4ccccc4n(-c4ccccc4)c3c21 [Example 6] |
| 285 (≈ 355 mM) | > 300 | 200 (≈ 249 mM) | > 200 | 243 (≈ 303 mM) | > 240 | c1ccc(-c2nc(-c3cccc4c3-c3ccccc3C43c4ccccc4-c4ccccc43)nc(-n3c4ccccc4c4c5c6ccccc6n(-c6ccccc6)c5ccc43)n2)cc1 [Example 3] |
| 445 (≈ 527 mM) | > 300 | 330 (≈ 391 mM) | > 200 | 376 (≈ 445 mM) | > 240 | CC1(C)c2ccccc2N(c2nc(-c3ccccc3)nc(-c3ccc4c(c3)-c3ccccc3C43c4ccccc4-c4ccccc43)n2)c2cc3c(cc21)c1ccccc1n3-c1ccccc1 [Example 5] |
| 344 (≈ 385 mM) | > 300 | 220 (≈ 246 mM) | > 200 | 284 (≈ 318 mM) | > 240 | c1ccc(-c2nc(-c3ccc4c(c3)C3(c5ccccc5-4)c4ccccc4N(c4ccccc4)c4ccccc43)nc(-n3c4ccccc4c4cc5c6ccccc6n(-c6ccccc6)c5cc43)n2)cc1 [Example 10] |
| 294 (≈ 367 mM) | > 300 | 205 (≈ 256 mM) | > 200 | 256 (≈ 319 mM) | > 240 | c1ccc(-c2nc(-c3cccc4c3-c3ccccc3C43c4ccccc4-c4ccccc43)nc(-n3c4ccccc4c4cc5c6ccccc6n(-c6ccccc6)c5cc43)n2)cc1 [Example 2] |
| 434 (≈ 520 mM) | > 300 | 285 (≈ 342 mM) | > 200 | 354 (≈ 424 mM) | > 240 | c1ccc(-c2nc(-c3ccc4c(c3)C3(c5ccccc5Sc5ccccc53)c3ccccc3-4)nc(-n3c4ccccc4c4ccc5c6ccccc6n(-c6ccccc6)c5c43)n2)cc1 [Example 9] |
| 430 (≈ 526 mM) | > 300 | 305 (≈ 373 mM) | > 200 | 362 (≈ 443 mM) | > 240 | c1ccc(-c2cc(-c3ccc4c(c3)-c3ccccc3C43c4ccccc4-c4ccccc43)nc(N3c4ccccc4Oc4ccc5c(c43)c3ccccc3n5-c3ccccc3)n2)cc1 [Example 4] |
| 473 (≈ 534 mM) | > 300 | 362 (≈ 409 mM) | > 200 | 405 (≈ 458 mM) | > 240 | CC1(C)c2ccccc2N(c2ccccc2)c2cc3c(cc21)N(c1nc(-c2ccccc2)cc(-c2cccc4c2-c2ccccc2C42c4ccccc4-c4ccccc42)n1)c1ccccc1C3(C)C [Example 7] |
| 510 (≈ 677 mM) | > 300 | 400 (≈ 531 mM) | > 200 | 452 (≈ 600 mM) | > 240 | CC1(C)c2ccccc2-c2ccc3c4ccccc4n(-c4nc(-c5ccccc5)nc(-c5cccc6c5-c5ccccc5C65c6ccccc6-c6ccccc65)n4)c3c21 [Example 8] |
| 374 (≈ 466 mM) | > 300 | 268 (≈ 334 mM) | > 200 | 313 (≈ 390 mM) | > 240 | [2H]c1cc2c3ccccc3n(-c3nc(-c4ccccc4)cc(-c4ccc5c(c4)-c4ccccc4C54c5ccccc5-c5ccccc54)n3)c2c2c3ccccc3n(-c3ccccc3)c12 [Example 11] |
| 185 (≈ 382 mM) |  | 130 (≈ 268 mM) |  | 153 (≈ 316 mM) |  | c1ccc2c(c1)c1ccccc1n2-c1ccc(-c2ccc(-n3c4ccccc4c4ccccc43)cc2)cc1 [CBP, 4,4′-bis(9H-carbazol-9-yl)biphenyl, reference compound] |
| 410 (≈ 511 mM) | > 300 | 250 (≈ 312 mM) | > 200 | 320 (≈ 399 mM) | > 240 | c1ccc(-c2nc(-c3cccc4c3-c3ccccc3C43c4ccccc4-c4ccccc43)nc(-n3c4ccccc4c4ccc5c6ccccc6n(-c6ccccc6)c5c43)n2)cc1 [Example 1] |

— patent US11447496B2, “Nitrogen-containing fused heterocyclic ring compound and application thereof” (GUANGZHOU CHINARAY OPTOELECTRONIC MATERIALS LTD., priority 2016, dated 2022)
